Data taken from article PMC11117721, “A Fast-Binding, Functionally Reversible, COX-2 Radiotracer for CNS PET Imaging” (ACS Central Science, 2024).
Converted amounts (≈) assume the structure as drawn. “And” between values parts separate entries of the source, which are not always exact repeats. Equal entries are not always repeated.

Columns and labels:
[1] = Permeability (Papp); assay type: in vitro ADME; settings: not told
[2] = target: T1, COX-2 (Homo sapiens, UniProt P35354); assay: LCMS-based biochemical COX-2 assay (arachidonic acid to PGE2), short 2 min enzyme-inhibitor incubation; settings: COX2 IC50 (nM, 2 min), LCMS readout
T1 sequence (P35354 18-604): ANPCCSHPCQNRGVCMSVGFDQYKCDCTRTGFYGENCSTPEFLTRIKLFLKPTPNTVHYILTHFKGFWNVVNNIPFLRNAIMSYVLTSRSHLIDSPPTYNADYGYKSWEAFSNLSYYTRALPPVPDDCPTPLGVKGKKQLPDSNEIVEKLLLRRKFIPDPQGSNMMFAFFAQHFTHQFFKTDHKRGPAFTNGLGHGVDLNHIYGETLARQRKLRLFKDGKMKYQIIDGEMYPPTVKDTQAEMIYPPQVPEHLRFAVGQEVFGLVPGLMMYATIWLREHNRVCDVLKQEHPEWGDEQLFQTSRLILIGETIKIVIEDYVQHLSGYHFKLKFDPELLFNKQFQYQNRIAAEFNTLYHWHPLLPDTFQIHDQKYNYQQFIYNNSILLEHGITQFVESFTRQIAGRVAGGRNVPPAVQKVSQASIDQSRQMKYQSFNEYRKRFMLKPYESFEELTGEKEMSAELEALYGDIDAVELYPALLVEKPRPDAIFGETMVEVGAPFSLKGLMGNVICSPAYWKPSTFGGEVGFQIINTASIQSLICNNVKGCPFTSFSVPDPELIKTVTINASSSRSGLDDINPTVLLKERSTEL
From the text: To anticipate fast washout pharmacokinetics in vivo, we utilized simple plasma and brain protein binding assays to maximize the unbound fraction. […] Previous COX-2 discovery relied on whole blood assays to measure COX-2 inhibition. Focusing on fast-binding inhibitors, we prioritized SAR derived from a rapid inhibition LCMS-based enzymatic assay.

[3] = target: P-gp (Homo sapiens, UniProt P08183); assay: Efflux ratio (ER) / P-gp efflux; assay type: in vitro ADME; settings: for ER: efflux ratio
[4] = Plasma protein binding (fraction unbound in plasma, Fup); assay type: in vitro ADME, mouse; settings: for Fup: as fraction, plasma protein binding; for Fup (mouse, %): mouse plasma
From the text: (§1) To select the best starting point for COX-2 radiotracer development, we extensively profiled a large set of known COX-2 selective inhibitors. Our primary focus was to identify a ligand with high binding affinity, COX-2 selectivity over COX-1, fast on-rate binding kinetics and improved free fraction in plasma to maximize the signal-to-noise ratio in PET imaging experiments. […] To anticipate fast washout pharmacokinetics in vivo, we utilized simple plasma and brain protein binding assays to maximize the unbound fraction.

[5] = target: T1, COX-2; assay: Lipophilic ligand efficiency (LLE)
[6] = Brain protein binding (fraction unbound in brain, Fub); assay type: in vitro ADME
From the text: as §1

[7] = tested on: COX-2; design: method as in earlier work; settings: human brain PET; cited from earlier work
[8] = Aqueous solubility in PBS; assay type: physicochemical; settings: aqueous buffer, read-out: Aq. Sol. (PBS)

P-gp, sequence (P08183 whole entry): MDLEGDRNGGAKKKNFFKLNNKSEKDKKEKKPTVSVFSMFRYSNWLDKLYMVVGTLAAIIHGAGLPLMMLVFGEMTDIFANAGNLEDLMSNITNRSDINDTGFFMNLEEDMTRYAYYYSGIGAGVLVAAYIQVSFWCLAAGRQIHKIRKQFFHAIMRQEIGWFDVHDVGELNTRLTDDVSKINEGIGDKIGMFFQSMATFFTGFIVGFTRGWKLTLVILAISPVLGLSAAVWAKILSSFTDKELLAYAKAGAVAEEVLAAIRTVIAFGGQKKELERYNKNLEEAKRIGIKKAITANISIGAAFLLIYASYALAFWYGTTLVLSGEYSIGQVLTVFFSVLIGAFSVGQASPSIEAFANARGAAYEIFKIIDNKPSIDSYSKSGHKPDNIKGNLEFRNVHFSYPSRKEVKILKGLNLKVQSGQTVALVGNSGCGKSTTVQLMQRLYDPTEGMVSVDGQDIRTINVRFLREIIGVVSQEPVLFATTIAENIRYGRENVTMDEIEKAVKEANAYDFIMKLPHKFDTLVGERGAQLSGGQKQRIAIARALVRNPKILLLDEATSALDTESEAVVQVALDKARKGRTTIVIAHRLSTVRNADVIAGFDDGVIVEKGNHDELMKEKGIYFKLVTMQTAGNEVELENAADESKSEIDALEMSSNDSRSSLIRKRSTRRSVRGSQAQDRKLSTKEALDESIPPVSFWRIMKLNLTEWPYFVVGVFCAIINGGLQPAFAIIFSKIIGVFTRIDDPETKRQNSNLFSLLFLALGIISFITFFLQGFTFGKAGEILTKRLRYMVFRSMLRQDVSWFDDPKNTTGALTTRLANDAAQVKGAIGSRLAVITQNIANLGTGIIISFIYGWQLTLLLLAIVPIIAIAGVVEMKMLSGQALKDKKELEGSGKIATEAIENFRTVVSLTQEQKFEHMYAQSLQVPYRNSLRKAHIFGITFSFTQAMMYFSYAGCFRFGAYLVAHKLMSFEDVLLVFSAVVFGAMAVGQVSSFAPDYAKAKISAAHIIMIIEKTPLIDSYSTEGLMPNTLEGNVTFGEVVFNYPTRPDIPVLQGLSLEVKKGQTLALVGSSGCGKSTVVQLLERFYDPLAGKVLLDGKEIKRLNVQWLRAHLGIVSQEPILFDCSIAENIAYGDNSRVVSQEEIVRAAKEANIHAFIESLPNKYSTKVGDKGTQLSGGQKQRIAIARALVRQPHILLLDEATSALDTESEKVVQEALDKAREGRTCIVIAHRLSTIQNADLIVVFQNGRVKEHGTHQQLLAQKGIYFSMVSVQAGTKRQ

Row | Compound | Papp [1] [×10⁻⁶ cm/s] | IC50 [2] | ER [3] | P-gp efflux ([3]; result in words) | fold improvement in plasma protein binding (PPB) ([4]; BRD1158 compared to MC1) [fold] | Fup [4] | Fup (mouse, %) [4] [%] | LLE [5] | Fub (mouse, %) [6] [%] | specific binding of the tracer (of the total uptake) [7] | solubility [8] [µM]
1 | CS(=O)(=O)c1ccc(-c2cccc(NCc3ccoc3)n2)cc1 [BRD1158] | 50.8 | 24.6 nM and 25 nM | 0.9 | no P-gp efflux | 4 | 0.091 | 9.1 | 4.78 | 2.2 | – | –
2 | CS(=O)(=O)c1ccc(-c2cccc(OCc3cccs3)n2)cc1 [BRD2369] | 33.7 | 3.4 nM and 3 nM | 0.9 | – | – | – | 0.4 | 4.8 | 0 | – | –
3 | CS(=O)(=O)c1ccc(-c2nc(NCc3cccs3)cc(O[11CH3])n2)cc1 [[^11C]MC1] | – | – | – | – | – | – | – | – | – | 10%–20% | –
4 | COc1cc(NCc2cccs2)nc(-c2ccc(S(C)(=O)=O)cc2)n1 [MC1, reference compound] | 36.5 | – | – | – | – | 0.024 | 2.4 | – | 0.75 | – | 3.4 (≈ 1.28 µg/mL)
